Experimental data reported in patent publication US8334289B2, “Pyridin-2-one compounds and their use as modulators of the dopamine D3 receptor” (Abbott GmbH & Co. KG, priority 2004, dated 2012).

What was measured:
[1] = target: T1, human dopamine D3 receptors (Homo sapiens, UniProt P35462); experiment: Dopamine D3 receptor binding, displacement of [125I]-iodosulpiride; details: membranes from HEK-293 cells stably expressing human D3 receptor; 0.1 nM [125I]-iodosulpiride; 25° C., 60 minutes
T1 construct: expressed in transfected cells; host or cells: HEK-293 (membranes)
Experimental: (§1) The substance to be tested was dissolved either in methanol/Chremophor® (BASF-AG) or in dimethyl sulfoxide and then diluted with water to the desired concentration.
(§2) Triplicate mixtures were carried out.
The incubation buffer contained 50 mM Tris, 120 mM NaCl, 5 mM KCl, 2 mM CaCl2, 2 mM MgCl2 and 0.1% bovine serum albumin, 10 μM quinolone, 0.1% ascorbic acid (prepared fresh each day). The buffer was adjusted to pH 7.4 with HCl.
(§3) After incubation at 25° C. for 60 minutes, the mixtures were filtered under vacuum through Whatman GF/B glass fiber filters using a cell harvester. The filters were transferred by a filter transfer system into scintillation vials. After addition of 4 ml of Ultima Gold® (Packard), the samples were shaken for one hour and then the radioactivity was counted in a beta counter (Packard, Tricarb 2000 or 2200CA). The cp values were converted into dpm by means of a standard quench series with the aid of the instrument's own program.
(§4) Evaluation of the inhibition plots took place by iterative nonlinear regression analysis using the Statistical Analysis System (SAS) similar to the “LIGAND” program described by Munson and Rodbard.

[2] = target: T2, human dopamine D2L receptors (long isoform) (Homo sapiens, UniProt P14416); experiment: Dopamine D2L receptor binding, displacement of [125I]-iodospiperone; details: Ki(D2L)/Ki(D3); membranes from HEK-293 cells with human D2L and D3 receptors
T2 construct: expressed in transfected cells; host or cells: HEK-293 (membranes)
Experimental: as §1, §2
The incubation buffer contained 50 mM Tris, 120 mM NaCl, 5 mM KCl, 2 mM CaCl2, 2 mM MgCl2 and 0.1% bovine serum albumin. The buffer was adjusted to pH 7.4 with HCl.
as §3, §4

T1 sequence (P35462 whole entry): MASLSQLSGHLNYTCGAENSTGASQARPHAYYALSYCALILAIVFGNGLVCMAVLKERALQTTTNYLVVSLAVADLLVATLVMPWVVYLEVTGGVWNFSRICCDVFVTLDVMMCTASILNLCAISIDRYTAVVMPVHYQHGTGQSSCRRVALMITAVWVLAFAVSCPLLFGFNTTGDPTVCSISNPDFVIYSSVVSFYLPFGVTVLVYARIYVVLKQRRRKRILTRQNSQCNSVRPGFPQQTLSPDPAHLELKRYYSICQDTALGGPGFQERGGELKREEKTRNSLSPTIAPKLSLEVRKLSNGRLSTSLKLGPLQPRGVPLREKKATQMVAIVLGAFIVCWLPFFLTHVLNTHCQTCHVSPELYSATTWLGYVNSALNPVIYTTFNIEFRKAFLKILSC
T2 sequence (P14416 whole entry, canonical isoform): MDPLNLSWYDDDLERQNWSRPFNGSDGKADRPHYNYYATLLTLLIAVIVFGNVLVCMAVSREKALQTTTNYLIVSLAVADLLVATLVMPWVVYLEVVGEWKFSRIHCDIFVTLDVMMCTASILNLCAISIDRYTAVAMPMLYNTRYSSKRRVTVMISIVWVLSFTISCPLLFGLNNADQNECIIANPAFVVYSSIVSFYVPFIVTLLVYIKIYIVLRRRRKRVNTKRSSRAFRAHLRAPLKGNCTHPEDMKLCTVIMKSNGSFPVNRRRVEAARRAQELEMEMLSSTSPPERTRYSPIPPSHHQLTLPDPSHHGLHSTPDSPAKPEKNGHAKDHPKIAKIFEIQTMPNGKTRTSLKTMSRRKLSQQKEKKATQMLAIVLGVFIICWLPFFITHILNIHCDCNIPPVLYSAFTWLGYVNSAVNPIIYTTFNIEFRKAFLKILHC

In the case of `CCCc1cc(N2CCN(CCCCn3ccc(C)cc3=O)CC2)nc(C(C)(C)C)n1.Cl` [Example 3, 4-(2-tert-Butyl-6-propylpyrimidin-4-yl)-1-[4-(4-methyl-2-oxopyridin-1(2H)-yl)butyl]piperazin-1-ium chloride], the Ki [1] is reported as 0.84 nM and the “Selectivity vs. D2L” value [2] is reported as 137.

For `CCCc1cc(N2CCN(CCCCn3cccc(OC)c3=O)CC2)nc(C(C)(C)C)n1` [Example 5, 1-{4-[4-(2-tert-Butyl-6-propylpyrimidin-4-yl)piperazin-1-yl]butyl}-3-methoxy-1H-pyridin-2-one], the Ki [1] was 1.2 nM and the “Selectivity vs. D2L” value [2] was 51.

In the case of `COc1cccn(CCCCN2CCN(c3cc(C(F)(F)F)nc(C(C)(C)C)n3)CC2)c1=O` [Example 6, 1-{4-[4-(2-tert-Butyl-6-trifluoromethylpyrimidin-4-yl)piperazin-1-yl]butyl}-3-methoxy-1H-pyridin-2-one], the Ki [1] is reported as 2.2 nM and the “Selectivity vs. D2L” value [2] is reported as 74.

For `CCCc1cc(N2CCN(CCCCn3cccc(C)c3=O)CC2)nc(C(C)(C)C)n1` [Example 7, 1-{4-[4-(2-tert-Butyl-6-propylpyrimidin-4-yl)piperazin-1-yl]butyl}-3-methyl-1H-pyridin-2-one], the Ki [1] was 1.25 nM and the “Selectivity vs. D2L” value [2] was 129.

With `Cc1cccn(CCCCN2CCN(c3cc(C(F)(F)F)nc(C(C)(C)C)n3)CC2)c1=O` [Example 11, 1-{4-[4-(2-tert-Butyl-6-trifluoromethylpyrimidin-4-yl)piperazin-1-yl]butyl}-3-methyl-1H-pyridin-2-one] the Ki [1] was 2.31 nM and the “Selectivity vs. D2L” value [2] was 74.
